Results taken from patent publication US20050074810A1, “Method for non-invasilvely determining the relative levels of two biological substances” (priority 2001, published 2005).
Read-outs that look alike come from different tables or passages of the source.

Details: subdermal lactate 1.74 mM, ammonium 1.56 mM
Experimental: Experiments were performed in specially-designed iontophoresis diffusion cells (Laboratory Glass Apparatus, Berkeley, Calif., USA) as represented in FIG. 7.
The anodal and cathodal chambers contacted the outer surface of the skin and contained the receptor (collection) media, respectively, 80 mM Tris/TrisHCl and 25 mM Tris+34 mM Mops (both buffered to pH 7.4).
Dermatomed pig-ear skin was clamped between the two halves of the iontophoresis cell and each chamber was filled with the appropriate solution.
The sub-dermal chamber was filled with the “donor solution which was perfused continuously at 2-3 mL/hour by means of a peristaltic pump.
A current of 0.4 mA (0.5 mA/cm^2) was passed for a total of 5 hours between the Ag/AgCl electrodes which were inserted into the anodal and cathodal chambers.
Every hour, the entire anode and cathode solutions were withdrawn and the chambers were refilled with fresh buffer.

**Q.** With `CC(O)C(=O)O` (centres unmarked) [Lactate, lactate] as the compound, how does the “Deduced transport number (×100)” value (3 h) read?
**A.** 0.59 ± 0.08 ×100

**Q.** What about the “Extracted flux ratio (×10^3) relative to K^+” value (3 h) of the same compound?
**A.** 149 ± 3.3 ×10^3

**Q.** And the “Extracted flux ratio (×10^3) relative to Na^+” value (3 h)?
**A.** 8.7 ± 0.1 ×10^3

**Q.** And the “K for analyte/internal standard couple, internal standard Na^+” value (3 h)?
**A.** 0.66 ± 0.01

**Q.** What about the “Deduced transport number (×100)” value (5 h) of the same compound?
**A.** 0.56 ± 0.07 ×100

**Q.** And the “Extracted flux ratio (×10^3) relative to K^+” value (5 h)?
**A.** 138 ± 15 ×10^3

**Q.** And the “Extracted flux ratio (×10^3) relative to Na^+” value (5 h)?
**A.** 7.8 ± 1.1 ×10^3

**Q.** What about the “K for analyte/internal standard couple, internal standard Na^+” value (5 h) of the same compound?
**A.** 0.60 ± 0.08
